These results are taken from article PMC7037636, “Synthesis of New Series of 2-C-(β-D-glucopyranosyl)-Pyrimidines and Their Evaluation as Inhibitors of Some Glycoenzymes” (Molecules, 2020).

SMILES strings stand for the structures.

In this assay the target is T1, bovine liver β-galactosidase.
T1 construct: gene GLB1; commercial native enzyme from bovine liver (Sigma-Aldrich)
As to the kind of experiment: PNP-β-Gal hydrolysis, absorbance at […] nm. Type of assay: biochemical, Bos taurus. The note with it: 1 mM PNP-β-Gal, citrate-phosphate buffer pH 7.3, 37 °C, 0.12 mg/mL enzyme; read-out: Inh.

`CCOC(=O)c1c(-c2ccccc2)nc([C@@H]2O[C@H](CO)[C@@H](O)[C@H](O)[C@H]2O)[nH]c1=O` [11h, Ethyl 2-(β-D-glucopyranosyl)-4-phenyl-6-oxo-1,6-dihydropyrimidine-5-carboxylate]: the IC50 was found to be 294 ± 50 µM.
